US11000535B2, “Anticancer composition and use thereof” (KAOHSIUNG MEDICAL UNIVERSITY, priority 2015, dated 2021)
Values after ≈ are worked out from the molar mass of the structure shown.

Key:
Huh7 cells [1] = experiment: alamarBlue cell viability / proliferation, Huh7; format: cell-based, human
Text: (§1) Next, we analyzed the effect of PGG on cell proliferation in different liver cancer cell lines, including Huh7, Hep3B (ATCC-No 8064), HepG2 (ATCC HB-8065), SK-HEP-1 (ATCC HTB-52), Mahlavu and HepG2 (ATCC HB-8065).
(§2) Please refer to FIG. 18, which illustrates the effect of PGG on cell proliferation in different liver cancer cell lines, wherein the numeral 1 denotes Huh7 cells, the numeral 2 denotes Hep3B cells, the numeral 3 denotes SK-HEP-1 cells, the numeral 4 denotes Mahlavu cells, and the numeral 5 denotes HepG2 cells. And cell viability was determined by the alamarBlue® viability assay. IC50 values of PGG in each cell line are shown as follows: Huh7 cells 0.03 mg/mL, Hep3B cells 0.07 mg/mL, SK-HEP-1 cells, Mahlavu cells and HepG2 0.10 mg/mL dose-dependent.
(§3) Human liver cancer cell lines Huh7, Hep G2, Hep 3B, SK-HEP-1, Mahlavu and embryonic kidney cell line HEK-293T all were cultured in Dulbecco's Modified Eagle's Medium (DMEM) (Gibco BRL, Grand Island, N.Y., USA) with 10% heat-inactivated fetal bovine serum (HyClone, Logan, Utah, USA), penicillin (100 U/mL), streptomycin ([…]), nonessential amino acids (0.1 mM/L) and L-glutamine (2 mM/L) in a humidified incubator with 5% CO2.

Hep3B cells = experiment: alamarBlue cell viability, Hep3B; format: cell-based, human
Text: as §1, §2, §3

Mahlavu cells = experiment: alamarBlue cell viability, Mahlavu; format: cell-based, human
Text: as §1, §2, §3

GNMT [2] = experiment: GNMT mRNA and protein expression in Huh7 cells (qPCR, immunoblot); format: cell-based, human
Method: (§4) RNA was prepared by using Tri Reagent (Sigma-Aldrich, St Louis, Mo., USA) and was reverse transcribed into cDNA using a Super Script II Reverse Transcriptase Kit (Invitrogen Inc., Carlsbad, Calif., USA).
(§5) PCR was performed on an ABI StepOne Plus System (Applied Biosystems, Foster City, Calif., USA) using the LightCycler® First Start DNA Master SYBR Green I reagent (Roche Diagnostics, Basel, Switzerland). The mRNA level was normalized using the TATA-box binding protein (TBP) mRNA level as the standard.
The following primers were used: GNMT forward, 5′-ACTGGATGACT CTGGACAA-3′ (SEQ ID NO. 3) and reverse, 5′-ACTGAGGATGTGGTCGT-3′(SEQ ID NO. 4); TBP forward, 5′-[…]-3′ (SEQ ID NO. 5) and reverse, 5′-[…]-3′(SEQ ID NO. 6); c-Myc forward, […](SEQ ID NO. 7) and reverse, […](SEQ ID NO. 8).
(§6) Cells or xenograft tumors were harvested with RIPA lysis buffer (50 mM Tris (pH 7.5), 150 mM NaCl, 1% Triton X-100, 0.1% sodium dodecyl sulfate (SDS), 0.5% sodium deoxycholate, supplemented with protease and phosphatase inhibitors (1 mM Phenylmethanesulfonyl Fluoride (PMSF), […], […] Tosyllysine Chloromethyl Ketone (TLCK), […] Tosyl phenylalanyl chloromethyl ketone (TPCK), […] aprotinin, 1 mM sodium fluoride (NaF), 5 mM sodium pyrophosphate (NaPPi) and 10 mM sodium orthovanadate (Na3VO4).
(§7) Protein lysates were quantified and separated on SDS-PAGE gel, and immunoblotting was carried out.
The following antibodies were used: anti-GNMT (14-1, YMAC Bio Tech, Taiwan), anti-caspase-3 (9H19L2, Thermo Scientific) and anti-actin (AC-15, Sigma-Aldrich).

GNMT [3] = experiment: GNMT expression in xenograft tumor samples; format: in vivo, mice
Text: Please refer to FIG. 21, which illustrates GNMT/actin expression in the tumor tissue.
Please refer to FIG. 30, which illustrates the relative expression of GNMT mRNA in the tumor xenograft mice after treatments, wherein the numeral 1 is for a physiological saline solution, the numeral 2 is for F3-6 (25 mpk), the numeral 3 is for F3-6 (300 mpk), the numeral 4 is for sorafenib (10 mpk), the numeral 5 is for F3-6 (25 mpk) with sorafenib (10 mpk), and the numeral 6 is for PGG (25 mpk) with sorafenib (10 mpk). The expression activity of GNMT mRNA is increased whenever fracrions F3-6 or PGG are administered.
as §4
as §5, with “standard. […]” for “standard.”
Protein lysates were quantified and separated on SDS-PAGE gel, and immunoblotting was carried out. […]

Huh7 cells [4] = experiment: Apoptosis in Huh7 cells (Annexin V flow cytometry, cleaved caspase 3 immunoblot); format: cell-based, human
Method: Please refer to FIG. 22, which illustrates sub-G1 of cells in population. And flow cytometry analysis is done after 24 hours of PGG (0.1 mg/mL) treatment as illustrated in FIG. 22.
Please refer to FIG. 23, which illustrates fluorescence intensity in Annexin-V-positive cells among Huh7 cells.
In summary, administration of PGG to Huh7 cells can induce apoptosis.
Cells were harvested and fixed with cold 75% ethanol overnight and stained with propidium iodide (10 ug/mL) and RNase A (1 mg/mL) at 37 □ for 30 min. The cells were then analyzed by an Accuri C6 Flow cytometer (BD Biosciences, San Jose, Calif., USA). Cells were stained for Annexin V—APC Apoptosis Detection Kit according to the manufacturer's protocol (eBioscience, San Diego, Calif., USA).

c-Myc protein [5] = experiment: c-Myc protein expression by immunoblotting, Huh7; format: cell-based, human; details: Huh7 cells
Method: Please refer to FIG. 32A, FIG. 32B, FIG. 33A and FIG. 33B.
as §6, §7

c-Myc protein [6] = experiment: c-Myc protein expression by immunoblotting, PC-3; format: cell-based, human; details: PC-3 cells, 0.1 mg/mL
Method: Human prostate cancer cell line PC-3 and human promyelocytic leukemia cell line HL-60 were cultured in Gibco BRL company RPMI (Roswell Park Memorial Institute) 1640's medium.
as §6, §7

## O=C(OC[C@H]1O[C@@H](OC(=O)c2cc(O)c(O)c(O)c2)[C@H](OC(=O)c2cc(O)c(O)c(O)c2)[C@@H](OC(=O)c2cc(O)c(O)c(O)c2)[C@@H]1OC(=O)c1cc(O)c(O)c(O)c1)c1cc(O)c(O)c(O)c1 [PGG, 1,2,3,4,6-penta-O-galloyl-β-D-glucopyranoside]
Huh7 cells [1]
  IC50: 30 µg/mL (≈ 31.9 µM)
Hep3B cells
  IC50: 70 µg/mL (≈ 74.4 µM)
Mahlavu cells
  IC50: 100 µg/mL (≈ 106 µM)
GNMT [2]; 0.1 mg/ml, Huh7 cells
  GNMT mRNA expression: induced GNMT mRNA expression
  GNMT protein expression: induced GNMT protein expression
GNMT [2]; after administration, qPCR and immunoblot
  time of optimal induced effect on GNMT: 48 h
GNMT [3]; PGG 300 mpk xenograft, FIG. 21
  GNMT/actin expression in the tumor tissue (immunoblot): induced
GNMT [3]; combination xenograft study, FIG. 30, F3-6 25 or 300 mpk, PGG 25 mpk with sorafenib 10 mpk
  expression activity of GNMT mRNA in the tumor: increased
Huh7 cells [4]
  apoptosis (Annexin V staining): significantly induce apoptosis
  level of cleaved caspase 3 (immunoblot): increased the level of cleaved caspase 3 in a dose-dependent manner
c-Myc protein [5]
  expression of c-Myc protein, dose dependence: suppresses the expression of c-Myc protein in Huh7 cells in a dose-dependent manner
  expression of c-Myc protein, time dependence: suppresses the expression of c-Myc protein in Huh7 cells in a time-dependent manner
c-Myc protein [6]
  c-Myc protein expression: inhibits c-Myc protein expression
